From US20140088102A1, “(ALPHA-SUBSTITUTED CYCLOALKYLAMINO AND HETEROCYCLYLAMINO) PYRIMIDINYL AND 1,3,5-TRIAZINYL BENZIMIDAZOLES, PHARMACEUTICAL COMPOSITIONS THEREOF, AND THEIR USE IN TREATING PROLIFERATIVE DISEASES” (MEI PHARMA, INC., priority 2011, published 2014) come the findings set out here.

As usually defined, the IC50 is the concentration at which inhibition is half-maximal. Read a low IC50 as inhibition by little substance.

SMILES strings stand for the structures.

Holding throughout (type): biochemical
One experiment deals with T1, p110δ (Homo sapiens, UniProt O00329).
T1 construct: purchased Millipore, Billerica, Mass., USA
Put plainly: Luciferase-based luminescence assay (Kinase GLO), PI3K delta. The conditions noted are these: for IC50: 6.86 nM enzyme, 50 μM PIP2, 25 μM ATP, 2 hours; for α/δ ratio: ratio of IC50 against PI3Kα over IC50 against PI3Kδ. On the procedure: (§1) PI3K catalyzes the conversion of phosphatidylinositol-4,5-bisphosphate (PIP2) and ATP to phosphatidylinositol-3,4,5-trisphosphate (PIP3) and ADP. PI3K enzymatic activity was determined by measuring the amount of ATP consumed following the kinase reaction using a luciferase-based luminescence assay (Kinase GLO®, Promega Corp., Madison, Wis., USA) in a reaction buffer. The reaction buffer contained 50 mM HEPES, pH 7.5, 3 mM MgCl2, 1 mM EGTA, 100 mM NaCl, 0.03% CHAPS, and 2 mM DTT. Compounds for testing were dissolved and serially diluted in 100% DMSO (total of 10 concentrations), and then diluted 1:25 in the reaction buffer. PI3K enzyme solutions were prepared by diluting PI3K alpha (Invitrogen Corp., Carlsbad, Calif., USA) or PI3K delta (Millipore, Billerica, Mass., USA) in the reaction buffer to 4× the final assay concentration. The final concentrations of enzymes were 1.65 nM and 6.86 nM for PI3K alpha and PI3K delta, respectively. A substrate solution was prepared by mixing PIP2 and ATP in reaction buffer at 2× the final assay concentration. The final concentrations were 50 μM and 25 μM for PIP2 and ATP, respectively. To individual wells of white low volume 384-well assay plates were added 2.5 μl each of the compound and kinase mixtures, followed by shaking. The reactions were started by adding 5 μl of substrate mixture per well and shaking. The assay plates were covered and reactions were allowed to proceed for 1 hour (PI3K alpha) or 2 hours (PI3K delta), after which 10 μl of Kinase GLO® reagent was added. The plates were briefly centrifuged and incubated for 10 minutes, after which luminescence was measured using a FlexStation plate reader (Molecular Devices, Sunnyvale, Calif., USA). IC50 values were determined by curve fitting using Graphpad Prism software (Graphpad Software, La Jolla, Calif., USA).
(Kinase-Glo reads ATP consumption through a luciferase reaction.)

The target of the next experiment is T2, p110α (Homo sapiens, UniProt P42336).
T2 construct: purchased Invitrogen Corp., Carlsbad, Calif., USA
Kind of experiment: Luciferase-based luminescence assay (Kinase GLO), PI3K alpha. The conditions noted are these: 1.65 nM enzyme, 50 μM PIP2, 25 μM ATP, 1 hour. The protocol: as §1

The next experiment deals with p110γ (Homo sapiens, UniProt P48736). Put plainly: Luciferase-based luminescence assay, p110γ.
The next experiment deals with mTOR (Homo sapiens, UniProt P42345). Kind of experiment: Luciferase-based luminescence assay, mTOR.
Another experiment concerns the target p110β (Homo sapiens, UniProt P42338). Kind of experiment: Luciferase-based luminescence assay, p110β.

Sequence of p110β (P42338 whole entry, species assumed): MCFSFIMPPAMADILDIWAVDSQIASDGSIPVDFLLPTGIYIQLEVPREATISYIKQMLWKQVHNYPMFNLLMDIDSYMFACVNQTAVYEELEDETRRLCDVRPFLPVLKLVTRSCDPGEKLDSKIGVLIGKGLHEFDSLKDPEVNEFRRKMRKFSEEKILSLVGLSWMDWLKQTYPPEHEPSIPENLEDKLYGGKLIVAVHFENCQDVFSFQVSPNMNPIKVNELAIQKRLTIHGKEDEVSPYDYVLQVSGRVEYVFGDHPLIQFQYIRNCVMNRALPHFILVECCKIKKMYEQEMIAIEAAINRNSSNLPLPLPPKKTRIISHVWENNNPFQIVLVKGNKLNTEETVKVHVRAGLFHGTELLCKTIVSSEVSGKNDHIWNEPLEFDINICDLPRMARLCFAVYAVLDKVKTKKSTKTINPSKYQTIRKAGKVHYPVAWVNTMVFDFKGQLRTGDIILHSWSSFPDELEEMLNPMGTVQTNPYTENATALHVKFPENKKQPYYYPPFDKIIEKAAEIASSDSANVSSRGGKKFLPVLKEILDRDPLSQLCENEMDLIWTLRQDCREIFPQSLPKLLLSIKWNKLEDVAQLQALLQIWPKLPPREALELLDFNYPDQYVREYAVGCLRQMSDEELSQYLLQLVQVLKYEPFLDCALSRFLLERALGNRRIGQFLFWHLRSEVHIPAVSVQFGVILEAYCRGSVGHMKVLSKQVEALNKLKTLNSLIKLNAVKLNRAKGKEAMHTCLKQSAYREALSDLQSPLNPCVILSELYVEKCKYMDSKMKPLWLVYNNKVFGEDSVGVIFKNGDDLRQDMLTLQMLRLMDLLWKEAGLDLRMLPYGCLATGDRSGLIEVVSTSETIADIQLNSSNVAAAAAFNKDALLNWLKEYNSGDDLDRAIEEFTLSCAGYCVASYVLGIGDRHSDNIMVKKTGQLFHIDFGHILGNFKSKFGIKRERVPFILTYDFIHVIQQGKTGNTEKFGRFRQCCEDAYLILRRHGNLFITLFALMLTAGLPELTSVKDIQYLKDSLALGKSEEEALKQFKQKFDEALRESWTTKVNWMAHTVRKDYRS
Sequence of p110β (P27986 whole entry partner, species assumed): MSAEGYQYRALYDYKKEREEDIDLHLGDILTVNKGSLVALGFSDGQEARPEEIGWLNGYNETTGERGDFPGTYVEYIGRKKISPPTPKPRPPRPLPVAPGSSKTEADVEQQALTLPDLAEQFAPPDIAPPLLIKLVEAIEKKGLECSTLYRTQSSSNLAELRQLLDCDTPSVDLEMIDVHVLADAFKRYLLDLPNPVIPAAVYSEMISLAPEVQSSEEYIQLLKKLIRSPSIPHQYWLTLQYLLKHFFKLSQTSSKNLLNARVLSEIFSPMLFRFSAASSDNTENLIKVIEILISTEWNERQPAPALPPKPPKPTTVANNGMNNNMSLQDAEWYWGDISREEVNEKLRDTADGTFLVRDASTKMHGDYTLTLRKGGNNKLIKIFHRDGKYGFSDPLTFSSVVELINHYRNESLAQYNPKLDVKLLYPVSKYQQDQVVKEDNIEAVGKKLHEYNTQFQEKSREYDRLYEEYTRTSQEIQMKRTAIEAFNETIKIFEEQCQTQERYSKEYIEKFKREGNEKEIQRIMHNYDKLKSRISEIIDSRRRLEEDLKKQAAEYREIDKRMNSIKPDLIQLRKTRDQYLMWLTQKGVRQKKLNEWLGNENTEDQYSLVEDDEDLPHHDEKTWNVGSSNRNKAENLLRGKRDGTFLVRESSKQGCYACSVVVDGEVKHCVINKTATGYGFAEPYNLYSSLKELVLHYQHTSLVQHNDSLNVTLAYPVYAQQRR
Sequence of p110γ (P48736 whole entry, species assumed): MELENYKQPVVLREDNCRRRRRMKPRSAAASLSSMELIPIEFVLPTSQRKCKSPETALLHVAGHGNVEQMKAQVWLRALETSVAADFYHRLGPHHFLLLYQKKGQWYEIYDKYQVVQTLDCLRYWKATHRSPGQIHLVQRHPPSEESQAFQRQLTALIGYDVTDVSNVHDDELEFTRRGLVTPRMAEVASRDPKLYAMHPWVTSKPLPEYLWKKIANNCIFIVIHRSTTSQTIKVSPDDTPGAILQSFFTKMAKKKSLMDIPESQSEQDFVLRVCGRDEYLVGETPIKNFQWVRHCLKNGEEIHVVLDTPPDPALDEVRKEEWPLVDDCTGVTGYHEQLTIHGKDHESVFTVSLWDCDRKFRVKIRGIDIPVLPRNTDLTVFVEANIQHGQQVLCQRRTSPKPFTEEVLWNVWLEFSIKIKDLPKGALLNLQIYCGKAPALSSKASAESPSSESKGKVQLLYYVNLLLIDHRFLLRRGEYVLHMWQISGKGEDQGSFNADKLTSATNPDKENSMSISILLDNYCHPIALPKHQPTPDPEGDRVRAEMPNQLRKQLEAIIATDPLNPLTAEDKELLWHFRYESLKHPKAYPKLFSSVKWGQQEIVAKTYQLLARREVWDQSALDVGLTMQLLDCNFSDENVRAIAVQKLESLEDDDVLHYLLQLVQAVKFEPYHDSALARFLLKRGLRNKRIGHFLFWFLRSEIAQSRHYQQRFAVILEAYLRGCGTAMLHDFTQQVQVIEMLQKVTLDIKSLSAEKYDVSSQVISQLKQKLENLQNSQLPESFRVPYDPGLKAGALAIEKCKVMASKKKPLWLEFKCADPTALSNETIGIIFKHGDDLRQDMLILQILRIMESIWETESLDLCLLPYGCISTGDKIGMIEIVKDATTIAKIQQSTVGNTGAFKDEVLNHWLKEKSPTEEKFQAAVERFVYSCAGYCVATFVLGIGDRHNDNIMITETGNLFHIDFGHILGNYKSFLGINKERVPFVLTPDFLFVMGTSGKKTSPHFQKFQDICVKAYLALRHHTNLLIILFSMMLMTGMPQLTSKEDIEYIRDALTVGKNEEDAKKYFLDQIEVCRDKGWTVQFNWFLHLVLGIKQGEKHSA
T2 sequence (P42336 whole entry): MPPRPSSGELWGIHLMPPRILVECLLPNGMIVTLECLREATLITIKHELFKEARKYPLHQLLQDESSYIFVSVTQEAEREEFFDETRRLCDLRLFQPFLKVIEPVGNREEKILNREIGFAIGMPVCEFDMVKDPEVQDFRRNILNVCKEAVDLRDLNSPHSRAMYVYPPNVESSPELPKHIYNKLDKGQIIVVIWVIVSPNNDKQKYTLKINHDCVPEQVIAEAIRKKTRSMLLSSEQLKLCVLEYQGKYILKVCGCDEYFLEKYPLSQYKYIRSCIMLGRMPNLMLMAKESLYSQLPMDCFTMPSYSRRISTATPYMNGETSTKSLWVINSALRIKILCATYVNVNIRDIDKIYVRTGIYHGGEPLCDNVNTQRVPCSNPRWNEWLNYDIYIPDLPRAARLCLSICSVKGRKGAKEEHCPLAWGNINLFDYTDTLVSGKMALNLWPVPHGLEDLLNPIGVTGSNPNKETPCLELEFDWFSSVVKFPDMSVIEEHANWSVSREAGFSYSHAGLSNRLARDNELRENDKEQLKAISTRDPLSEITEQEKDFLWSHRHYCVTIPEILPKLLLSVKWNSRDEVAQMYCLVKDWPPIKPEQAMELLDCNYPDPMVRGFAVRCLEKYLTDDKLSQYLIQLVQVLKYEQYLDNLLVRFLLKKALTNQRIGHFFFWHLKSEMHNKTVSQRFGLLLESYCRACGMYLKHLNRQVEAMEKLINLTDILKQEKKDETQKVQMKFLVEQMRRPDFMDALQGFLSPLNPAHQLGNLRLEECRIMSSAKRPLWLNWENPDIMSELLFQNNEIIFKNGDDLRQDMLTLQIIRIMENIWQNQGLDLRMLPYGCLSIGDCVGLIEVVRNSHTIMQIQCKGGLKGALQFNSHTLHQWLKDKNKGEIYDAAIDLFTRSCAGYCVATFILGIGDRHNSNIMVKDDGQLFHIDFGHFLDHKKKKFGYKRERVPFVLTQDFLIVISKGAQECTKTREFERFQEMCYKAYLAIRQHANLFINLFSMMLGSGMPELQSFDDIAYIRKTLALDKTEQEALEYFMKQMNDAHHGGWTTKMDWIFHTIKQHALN
T2 sequence (P27986 whole entry partner): as the sequence (P27986 whole entry partner, species assumed) above
T1 sequence (O00329 whole entry): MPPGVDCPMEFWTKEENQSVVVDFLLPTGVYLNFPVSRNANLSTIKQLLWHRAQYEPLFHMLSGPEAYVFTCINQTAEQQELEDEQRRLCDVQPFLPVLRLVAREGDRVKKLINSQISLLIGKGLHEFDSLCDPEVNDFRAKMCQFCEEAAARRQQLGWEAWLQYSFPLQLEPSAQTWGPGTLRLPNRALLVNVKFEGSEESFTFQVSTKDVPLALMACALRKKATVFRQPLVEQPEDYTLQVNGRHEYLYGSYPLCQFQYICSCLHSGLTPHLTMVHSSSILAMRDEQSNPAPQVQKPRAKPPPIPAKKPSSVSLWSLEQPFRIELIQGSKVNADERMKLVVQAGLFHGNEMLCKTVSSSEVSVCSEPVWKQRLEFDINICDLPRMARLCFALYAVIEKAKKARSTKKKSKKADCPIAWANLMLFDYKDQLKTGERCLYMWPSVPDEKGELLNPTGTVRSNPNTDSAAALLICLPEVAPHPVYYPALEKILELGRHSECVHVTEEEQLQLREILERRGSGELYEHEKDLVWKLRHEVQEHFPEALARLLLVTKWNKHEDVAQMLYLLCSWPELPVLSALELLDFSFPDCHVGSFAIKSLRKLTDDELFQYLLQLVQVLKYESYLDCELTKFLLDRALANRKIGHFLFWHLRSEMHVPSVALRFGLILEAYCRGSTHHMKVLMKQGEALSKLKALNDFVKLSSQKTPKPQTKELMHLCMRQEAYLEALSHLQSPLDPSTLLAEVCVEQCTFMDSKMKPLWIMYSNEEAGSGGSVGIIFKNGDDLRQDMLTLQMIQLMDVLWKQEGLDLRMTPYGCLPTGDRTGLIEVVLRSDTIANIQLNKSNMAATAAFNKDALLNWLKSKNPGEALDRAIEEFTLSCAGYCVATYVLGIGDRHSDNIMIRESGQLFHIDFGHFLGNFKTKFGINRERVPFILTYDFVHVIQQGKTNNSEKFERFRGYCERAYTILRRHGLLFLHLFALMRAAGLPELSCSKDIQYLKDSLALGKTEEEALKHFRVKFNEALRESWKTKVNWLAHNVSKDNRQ
T1 sequence (P27986 whole entry partner): as the sequence (P27986 whole entry partner, species assumed) above

With `FC(F)c1nc2ccccc2n1-c1nc(NC2(c3ccccc3)CC2)nc(N2CCOCC2)n1` [Compound A1, 4-(2-(difluoromethyl)-1H-benzo[d]imidazol-1-yl)-6-morpholino-N-(1-phenylcyclopropyl)-1,3,5-triazin-2-amine], on p110δ, the IC50 was no more than 100 nM and the α/δ ratio entry is “B′ (B′ represents a ratio of no less than 4 but no greater than 8)”. The compound further yielded an IC50 on p110α of 200 to 500 nM.

Turning to `FC(F)c1nc2ccccc2n1-c1nc(NC2(c3ccccc3)CCCC2)nc(N2CCOCC2)n1` [Compound A3, 4-(2-(difluoromethyl)-1H-benzo[d]imidazol-1-yl)-6-morpholino-N-(1-phenylcyclopentyl)-1,3,5-triazin-2-amine], on p110δ, the IC50 is greater than 500 nM and the α/δ ratio result is reported as “A′ (A′ represents a ratio of greater than 8)”. This compound showed an IC50 on p110α greater than 500 nM.

As for `FC(F)c1nc2ccccc2n1-c1nc(NC2(c3ccccc3)CCCCC2)nc(N2CCOCC2)n1` [Compound A4, 4-(2-(difluoromethyl)-1H-benzo[d]imidazol-1-yl)-6-morpholino-N-(1-phenylcyclohexyl)-1,3,5-triazin-2-amine], the IC50 against p110δ was 200 to 500 nM; on p110α, greater than 500 nM. The α/δ ratio result at p110δ is recorded as “A′ (A′ represents a ratio of greater than 8)”.

`FC(F)c1nc2ccccc2n1-c1nc(NC2(Cc3ccccc3)CC2)nc(N2CCOCC2)n1` [Compound A5, N-(1-benzylcyclopropyl)-4-(2-(difluoromethyl)-1H-benzo[d]imidazol-1-yl)-6-morpholino-1,3,5-triazin-2-amine]: the IC50 at p110δ was no more than 100 nM; against p110γ it was greater than 500 nM; on mTOR it was greater than 500 nM; on p110α it was greater than 500 nM; against p110β it was greater than 500 nM. On p110δ, the α/δ ratio entry is “A′ (A′ represents a ratio of greater than 8)”.

`FC(F)c1nc2ccccc2n1-c1nc(NC2(Cc3ccc(Br)cc3)CCCCC2)nc(N2CCOCC2)n1` [Compound A6, N-(1-(4-bromobenzyl)cyclohexyl)-4-(2-(difluoromethyl)-1H-benzo[d]imidazol-1-yl)-6-morpholino-1,3,5-triazin-2-amine]: the IC50 against p110δ, at p110γ, against mTOR, on p110α and on p110β was greater than 500 nM throughout. For the same compound, at p110δ, the α/δ ratio result is given as “B′ (B′ represents a ratio of no less than 4 but no greater than 8)”.

Turning to `FC(F)c1nc2ccccc2n1-c1nc(NC2(Cc3ccccc3)CCCC2)nc(N2CCOCC2)n1` [Compound A7, N-(1-benzylcyclopentyl)-4-(2-(difluoromethyl)-1H-benzo[d]imidazol-1-yl)-6-morpholino-1,3,5-triazin-2-amine], the concentration for half-maximal inhibition (IC50) is no more than 100 nM against p110δ; 200 to 500 nM on p110γ; greater than 500 nM on mTOR; greater than 500 nM on p110α; 100 to 200 nM against p110β. The α/δ ratio entry on p110δ is given as “A′ (A′ represents a ratio of greater than 8)”.

Turning to `Cc1ccccc1CC1(Nc2nc(N3CCOCC3)nc(-n3c(C(F)F)nc4ccccc43)n2)CC1` [Compound A8, 4-(2-(difluoromethyl)-1H-benzo[d]imidazol-1-yl)-N-(1-(2-methylbenzyl)cyclopropyl)-6-morpholino-1,3,5-triazin-2-amine], the IC50 against p110δ was 100 to 200 nM; at p110γ, greater than 500 nM; on mTOR it was greater than 500 nM; at p110α, greater than 500 nM; on p110β, greater than 500 nM. The α/δ ratio result at p110δ is on record as “B′ (B′ represents a ratio of no less than 4 but no greater than 8)”.

Consider `FC(F)c1nc2ccccc2n1-c1nc(NC2(Cc3ccccc3Cl)CC2)nc(N2CCOCC2)n1` [Compound A10, N-(1-(2-chlorobenzyl)cyclopropyl)-4-(2-(difluoromethyl)-1H-benzo[d]imidazol-1-yl)-6-morpholino-1,3,5-triazin-2-amine], for which the IC50 against p110δ was 200 to 500 nM; at p110γ it was greater than 500 nM; against mTOR it was greater than 500 nM; against p110α, greater than 500 nM; against p110β, greater than 500 nM. Also, on p110δ, the α/δ ratio result is on record as “A′ (A′ represents a ratio of greater than 8)”.

As for `FC(F)c1nc2ccccc2n1-c1nc(NC2(Cc3ccccc3)CCC2)nc(N2CCOCC2)n1` [Compound A11, 4-(2-(difluoromethyl)-1H-benzo[d]imidazol-1-yl)-N-(1-benzylcyclobutyl)-6-morpholino-1,3,5-triazin-2-amine], the IC50 is no more than 100 nM against p110δ; 200 to 500 nM against p110γ; greater than 500 nM on mTOR; greater than 500 nM against p110α; no more than 100 nM against p110β. Besides, the α/δ ratio result on p110δ was “A′ (A′ represents a ratio of greater than 8)”.

Turning to `FC(F)c1nc2ccccc2n1-c1nc(NCc2ccccc2)nc(N2CCOCC2)n1` [Ref. 1, N-benzyl-4-(2-(difluoromethyl)-1H-benzo[d]imidazol-1-yl)-6-morpholino-1,3,5-triazin-2-amine, reference compound], on p110δ, the IC50 fell in the range of 100 to 200 nM and the α/δ ratio entry was “D′ (D′ represents a ratio of no greater than 2)”. The compound also yielded an IC50 against p110α of 100 to 200 nM.
